According to patent US8349877B2, “Ternary fungicidal compositions comprising boscalid and chlorothalonil” (BASF SE, priority 2007, dated 2013):
Where two headings read alike, the source gives them in different places.

Legend:
[1] = system: Pyricularia oryzae; assay type: cell-based; conditions: 7 days after inoculation
[2] = system: Alternaria solani; conditions: 4 ppm; 7 days after inoculation
[3] = system: Colleotrichum truncatum; assay: Activity against Colleotrichum truncatum in the microtiterplate test; assay type: cell-based; conditions: 168 h, read-out: Observed efficacy
[4] = system: Fusarium culmorum; assay: Activity against Fusarium culmorum in the microtiterplate test; assay type: cell-based; conditions: 0.063 ppm; 7 days after inoculation
[5] = 4 ppm, 7 days after inoculation

## Fc1ccc([C@]2(Cn3cncn3)O[C@H]2c2ccccc2Cl)cc1 (racemic) [Epoxiconazol, (2RS,3SR)-1-[3-(2-chlorophenyl)-2,3-epoxy-2-(4-fluorophenyl)propyl]-1H-1,2,4-triazole]
[1]; 0.063 ppm
  Observed efficacy: 4%
[1]; 1 ppm
  Observed efficacy: 40%

## CC(C)OC(=O)N[C@H](C(=O)N[C@H](C)c1nc2ccc(F)cc2s1)C(C)C [Benthivalicarb, isopropyl {(S)-1-[(1R)-1-(6-fluorobenzothiazol-2-yl)-ethylcarbamoyl]-2-methylpropyl}carbamate]
[2]
  Observed efficacy: 0%
[3]
  inhibition of growth at 4 ppm: 0%

## O=C1C2CC=CCC2C(=O)N1SC(Cl)(Cl)Cl (stereo not drawn) [Captan, N-(trichloromethylthio)cyclohex-4-ene-1,2-dicarboximide]
[3]; 7 days after inoculation
  inhibition of growth at 1 ppm: 49%

## CO/N=C(/C1=NOCCO1)c1ccccc1Oc1ncnc(Oc2ccccc2Cl)c1F [Fluoxastrobin, (E)-{2-[6-(2-chlorophenoxy)-5-fluoropyrimidin-4-yloxy]phenyl}(5,6-dihydro-1,4,2-dioxazin-3-yl)methanone O-methyloxime]
[3]; 7 days after inoculation
  inhibition of growth at 1 ppm: 32%

## CC(C)NC(=O)N1CC(=O)N(c2cc(Cl)cc(Cl)c2)C1=O [Iprodion, N-isopropyl-3-(3,5-dichlorophenyl)-2,4-dioxoimidazolidine-1-carboxamide]
[3]; 7 days after inoculation
  inhibition of growth at 1 ppm: 7%

## CC1(C)CCC(Cc2ccc(Cl)cc2)C1(O)Cn1cncn1 (stereo not drawn) [Metconazol, 5-(4-chlorobenzyl)-2,2-dimethyl-1-[1,2,4]triazol-1-ylmethylcyclopentanol]
[1]; 0.063 ppm
  Observed efficacy: 0%
[1]; 0.25 ppm
  Observed efficacy: 5%
[4]
  Observed efficacy: 31%

## COC=C(C(=O)OC)c1ccccc1COc1cccc(C(F)(F)F)n1 [Picoxystrobin, methyl 3-methoxy-2-[2-(6-trifluoromethylpyridin-2-yloxymethyl)phenyl]-acrylate]
[3]; 0.25 ppm, 7 days after inoculation
  inhibition of growth at 0.25 ppm: 32%

## Cc1cc(C)nc(Nc2ccccc2)n1 [Pyrimethanil, 4,6-dimethylpyrimidin-2-ylphenylamine]
[3]; [5]
  inhibition of growth at 4 ppm: 7%

## CC(C)(C)C(O)(CCc1ccc(Cl)cc1)Cn1cncn1 (stereo not drawn) [Tebuconazole, 1-(4-chlorophenyl)-4,4-dimethyl-3-[1,2,4]triazol-1-ylmethylpentan-3-ol]
[2]
  Observed efficacy: 0%
[3]; [5]
  inhibition of growth at 4 ppm: 0%

## CC1(C)CC/C(=C\c2ccc(Cl)cc2)C1(O)Cn1cncn1 (stereo not drawn) [Triticonazol, (5E)-5-[(4-chlorophenyl)methylene]-2,2-dimethyl-1-(1H-1,2,4-triazol-1-ylmethyl)cyclopentanol]
[3]; 7 days after inoculation
  inhibition of growth at 1 ppm: 7%
